Test results taken from patent publication US5196437A, “Method for treating hepatic diseases and regenerating liver tissue using FK 506 and related compounds” (Fujisawa Pharmaceutical Company, Ltd., priority 1990, dated 1993).

What was measured:
midzonal hepatocytes = test: Eck fistula dogs, left portal vein infusion: electron microscopy of hepatocyte organelles; format: in vivo, dog (beagle)
Protocol: (§1) Twenty adult female beagle dogs underwent Eck fistula (Starzl et al, Lancet, 1976, 1:821-25). After performing a large side to side portacaval shunt, the left and right portal vein branches were ligated. A small infusion catheter was tied into the left branch and led through the abdominal wall and subcutaneously to a battery charged infusion pump that was incorporated into a non-restraining body cast. A constant infusion was started of the control or test fluids at the volume of 20 to 30 ml/day. Oral fluids and diet were allowed ad lib. Four days later, the animals were administered 0.2 mCi/kg (CH3 -^3 H)-thymidine with specific activity of 80-90 Ci/MMol (New England Nuclear, Boston). Two hours later, the dogs were anesthetized and killed.
For studies of the organelles, small cubes of each hepatic sample were taken for electron microscopy. The tissue was post-fixed in glutaraldehyde followed by osmic acid. After embedding in Polarbed. 812 resin, ultrathin sections were cut, stained with lead citrate and examined in a Philip's 300 electron microscope. Measurements of the organelles were made on electron micrographs by Loud's method (Loud, J Cell Biol, 1968, 37:27-46).
(§2) Results are expressed as mean±standard deviation (SD). The Student's t-test was employed in individual experimental groups to compare differences between right and left lobes or between groups. A p value less than 0.05 was considered to be significant.

hepatocytes = test: Eck fistula dogs, left portal vein infusion: hepatocyte size and 3H-thymidine labelled hepatocytes; format: in vivo, dog (beagle); settings: for Labeled Hepatocytes/1000 Hepatocytes, Left / Hepatocytes Size Units, Left: left (infused) lobe; for Labeled Hepatocytes/1000 Hepatocytes, Left / Hepatocytes Size Units, Left / Hepatocytes Size Units, Right / Labeled Hepatocytes/1000 Hepatocytes, Right: mean +/- SD; for Hepatocytes Size Units, Right / Labeled Hepatocytes/1000 Hepatocytes, Right: right lobe
Protocol: as §1
Specimens were taken from 2 of the right hepatic lobes and 2 of the left lobes, fixed in 10% buffered formalin, and stained using standard hematoxylin-eosin staining techniques.
Autoradiography was carried out using Ilford K5 nuclear track liquid emulsion and an exposure time of at least 30 days. The number of mitoses, as an index of hepatocyte regeneration, was determined by counting the number of ^3 H-thymidine labelled nuclei per 1000 hepatocytes. […] In normal, unaltered dogs, about 1.6±0.4 mitosis per 1000 hepatocytes are present in the liver, and midzonal hepatocytes are about 0.17±0.01 size-units (Starzl et al, Lancet, 1979, 1:127-130). The exceptional reproducibility of these values and the small standard deviations make it easy to identify changes caused by operations such as Eck fistula, drugs, or other experimental variables.
as §2

[1] = 1.0 mg/kg/day, right lobe, mean +/- SD
[2] = infused into the left portal vein

C=CCC1C=C(C)CC(C)CC(OC)C2OC(O)(C(=O)C(=O)N3CCCCC3C(=O)OC(C(C)=CC3CCC(O)C(OC)C3)C(C)C(O)CC1=O)C(C)CC2OC (centres unmarked) [FK 506]
lipid accumulation in right lobes (midzonal hepatocytes; 1 mg/kg/day, compared to vehicle controls, p<0.001): reduced lipid accumulation | Organelle volume in average midzonal hepatocytes, Lysosomes, Left (midzonal hepatocytes; 1.0 mg/kg/day, left (infused) lobe, mean +/- SD, left vs right p 0.0002): 48.8 +/- 10.9 uM^3 | Organelle volume in average midzonal hepatocytes, Lipids, Left (midzonal hepatocytes; 1.0 mg/kg/day, left (infused) lobe, mean +/- SD, left vs right p 0.0044): 15.6 +/- 2.8 uM^3 | Organelle volume in average midzonal hepatocytes, Microbodies, Left (midzonal hepatocytes; 1.0 mg/kg/day, left (infused) lobe, mean +/- SD, left vs right p 0.1111): 94.2 +/- 10.4 uM^3 | Organelle volume in average midzonal hepatocytes, Mitochondria, Left (midzonal hepatocytes; 1.0 mg/kg/day, left (infused) lobe, mean +/- SD, left vs right p 0.1996): 1284.8 +/- 178.9 uM^3 | Area of rough endoplasmic reticulum per average midzonal hepatocyte, Left (midzonal hepatocytes; 1.0 mg/kg/day, left (infused) lobe, mean +/- SD, p vs vehicle 0.0000, left vs right 0.0002): 32091 +/- 1225 uM^2 | Area of smooth endoplasmic reticulum per average midzonal hepatocyte, Left (midzonal hepatocytes; 1.0 mg/kg/day, left (infused) lobe, mean +/- SD, p vs vehicle 0.0574, left vs right 0.0024): 17876 +/- 642 uM^2 | lysosomes in right lobar hepatocytes (midzonal hepatocytes; 1 mg/kg/day, p<0.05): reduced | microbodies in right lobar hepatocytes (midzonal hepatocytes; 1 mg/kg/day, p=0.07): reduced | Organelle volume in average midzonal hepatocytes, Lipids, Right (midzonal hepatocytes; [1]): 47.8 +/- 11.3 uM^3 | Organelle volume in average midzonal hepatocytes, Lysosomes, Right (midzonal hepatocytes; [1]): 160.0 +/- 23.8 uM^3 | Organelle volume in average midzonal hepatocytes, Microbodies, Right (midzonal hepatocytes; [1]): 136.6 +/- 41.3 uM^3 | Organelle volume in average midzonal hepatocytes, Mitochondria, Right (midzonal hepatocytes; [1]): 1440.6 +/- 318.7 uM^3 | Area of rough endoplasmic reticulum per average midzonal hepatocyte, Right (midzonal hepatocytes; 1.0 mg/kg/day, right lobe, mean +/- SD, p vs vehicle 0.0003): 20839 +/- 1612 uM^2 | Area of smooth endoplasmic reticulum per average midzonal hepatocyte, Right (midzonal hepatocytes; 1.0 mg/kg/day, right lobe, mean +/- SD, p vs vehicle 0.0858): 23154 +/- 193 uM^2 | mitochondria (midzonal hepatocytes; FK 506-infused lobes): neither enlarged (Table V) nor abnormal | number of microbodies, lysosomes and small lipid containing vacuoles (midzonal hepatocytes; FK 506-infused lobes): near normal levels | amount of rough endoplasmic reticulum (midzonal hepatocytes; infused lobes): restored relative to controls | dilatation and disruption of the cisternae (midzonal hepatocytes; infused lobes): minimal | ultrastructure of hepatocytes exposed to infused FK 506 (midzonal hepatocytes; left lobes, even at the smallest doses): almost normal even at the smallest doses | changes in the hepatocytes in the right lobes (midzonal hepatocytes; low doses of FK 506, compared with controls): did not differ greatly from those seen in the controls | Labeled Hepatocytes/1000 Hepatocytes, Left (hepatocytes; 0.01 mg/kg/day, p vs vehicle 0.0044, left vs right 0.0167): 5.43 +/- .35 Labeled Hepatocytes/1000 Hepat | Hepatocytes Size Units, Left (hepatocytes; 0.01 mg/kg/day, p vs vehicle 0.5782, left vs right 0.0004): .111 +/- .008 Size Units | Hepatocytes Size Units, Right (hepatocytes; 0.01 mg/kg/day, p vs vehicle 0.1860): .100 +/- .007 Size Units | Labeled Hepatocytes/1000 Hepatocytes, Right (hepatocytes; 0.01 mg/kg/day, p vs vehicle 0.2477): 4.77 +/- .60 Labeled Hepatocytes/1000 Hepat | Labeled Hepatocytes/1000 Hepatocytes, Left (hepatocytes; 0.1 mg/kg/day, p vs vehicle 0.0005, left vs right 0.0001): 5.98 +/- .43 Labeled Hepatocytes/1000 Hepat | Hepatocytes Size Units, Left (hepatocytes; 0.1 mg/kg/day, p vs vehicle 0.0065, left vs right 0.0000): .137 +/- .008 Size Units | Labeled Hepatocytes/1000 Hepatocytes, Right (hepatocytes; 0.1 mg/kg/day, p vs vehicle 0.0086): 5.19 +/- .38 Labeled Hepatocytes/1000 Hepat | Hepatocytes Size Units, Right (hepatocytes; 0.1 mg/kg/day, p vs vehicle 0.8351): .113 +/- .006 Size Units | Labeled Hepatocytes/1000 Hepatocytes, Left (hepatocytes; 1.0 mg/kg/day, p vs vehicle 0.0001, left vs right 0.0015): 9.13 +/- .89 Labeled Hepatocytes/1000 Hepat | Hepatocytes Size Units, Left (hepatocytes; 1.0 mg/kg/day, p vs vehicle 0.0004, left vs right 0.0009): .162 +/- .012 Size Units | Hepatocytes Size Units, Right (hepatocytes; 1.0 mg/kg/day, p vs vehicle 0.0503): .134 +/- .006 Size Units | Labeled Hepatocytes/1000 Hepatocytes, Right (hepatocytes; 1.0 mg/kg/day, p vs vehicle 0.0510): 5.37 +/- .78 Labeled Hepatocytes/1000 Hepat | changes in directly infused lobes compared with non-infused lobes (hepatocytes; all doses): significantly greater in the directly infused lobes at all doses | changes in non-infused lobes compared to vehicle controls (hepatocytes; high FK 506 doses): significantly effected compared to the vehicle controls | atrophy of the left lobar hepatocytes (hepatocytes; [2]): prevented in proportion to the dose | rate of mitoses (hepatocytes; [2]): increased | evidence of drug toxicity in infused lobes (hepatocytes; lobes infused with FK 506): no evidence of drug toxicity
